Tests used:
P388 = test: Cytotoxicity against mouse P388 cells after 72 hrs by alamar blue assay; assay type: functional, cell-based; settings: P388, 72 h
DLD-1 = test: Cytotoxicity against human DLD1 cells after 72 hrs by alamar blue assay; assay type: functional, cell-based; settings: DLD-1, 72 h
Neutrophil [1] = test: Anti-inflammatory activity in human neutrophils assessed as inhibition of fMLP/CB-induced superoxide anion generation at 10 uM preincubated for 5 mins followed by cytochalasin B addition for 3 mins and fMLP for 10 mins by superoxide dismutase inhibitable reduction of ferricytochrome c based assay relative to control; assay type: functional
Neutrophil [2] = test: Anti-inflammatory activity in human neutrophils assessed as inhibition of fMLP/CB-induced elastase release at 10 uM preincubated for 5 mins followed by fMLP/CB stimulation for 10 mins using MeO-Suc-Ala-Ala-Pro-Val-p-nitroanilide as substrate; assay type: functional
Neutrophil [3] = test: Anti-inflammatory activity in human neutrophils assessed as inhibition of fMLP/CB-induced elastase release preincubated for 5 mins followed by fMLP/CB stimulation for 10 mins using MeO-Suc-Ala-Ala-Pro-Val-p-nitroanilide as substrate; assay type: functional, cell-based
K562 = test: Cytotoxicity against human K562 cells after 72 hrs by alamar blue assay; assay type: functional, cell-based; settings: K562, 72 h
HT-29 = test: Cytotoxicity against human HT-29 cells after 72 hrs by alamar blue assay; assay type: functional, cell-based; settings: HT-29, 72 h
A549 = test: Cytotoxicity against human A549 cells after 72 hrs by alamar blue assay; assay type: functional, cell-based; settings: A549, 72 h
Neutrophil [4] = test: Anti-inflammatory activity in human neutrophils assessed as inhibition of fMLP/CB-induced superoxide anion generation preincubated for 5 mins followed by cytochalasin B addition for 3 mins and fMLP for 10 mins by superoxide dismutase inhibitable reduction of ferricytochrome c based assay; assay type: functional, cell-based

Row | SMILES | IC50 (P388) | IC50 (DLD-1) | inhibition at 10 µM (Neutrophil [1]) | inhibition at 10 µM (Neutrophil [2]) | IC50 (Neutrophil [3]) | IC50 (K562) | IC50 (HT-29) | IC50 (A549) | IC50 (Neutrophil [4])
1 | CC(C)[C@@H](C)[C@@]1(C)C[C@@H]1[C@@H](C)[C@H]1CC[C@@H]([C@@]23C=C[C@]4(C[C@@H](O)CC[C@]4(C)C2=O)OO3)[C@]1(C)CCO | > 40 µM | 27.5 µM | 67% | 111% | 1.55 µM | 22.5 µM | 27.5 µM | 15.8 µM | 5.83 µM
2 | COc1cccc2c1C(=O)c1c(O)c3c(c(O)c1C2=O)C[C@@](O)(C(=O)CO)C[C@@H]3O[C@H]1C[C@H](N)[C@H](O)[C@H](C)O1 [DOXORUBICIN] |  |  |  |  |  |  | 0.87 µM |  | 
3 | CC(C)[C@@H](C)[C@@]1(C)C[C@@H]1[C@@H](C)[C@H]1CC[C@H]2[C@@H]3[C@H](O)C=C4C[C@@H](O)CC[C@]4(C)[C@@]3(O)OC[C@]12C | > 40 µM | > 40 µM | 1.21% | 25.2% | > 10 µM | > 40 µM | > 40 µM | > 40 µM | > 10 µM
4 | CC(C)[C@@H](C)C[C@H](O)[C@@H](C)[C@H]1CC[C@H]2[C@@H]3[C@@H](O)C=C4C[C@@H](O)CC[C@]4(C)[C@H]3CC[C@]12C | 31.8 µM | > 40 µM | 12.6% | 79.2% | 5.84 µM | > 40 µM | 36.7 µM | > 40 µM | > 10 µM
